# Measurements published in patent publication US20240228572A1 (i2o Therapeutics, Inc., priority 2020, published 2024).
# *1 amine or outer side, *2 acyl side, *3 side chain or, on linkers, in order; H or OH if unused. Where a SMILES comes first, the peptide text is derived from it. Bridges are numbered along the chain shown (N, C = ends). Side-chain parts run from the residue outwards. The star is where a group is joined. C20 diacid = O=C(O)CCCCCCCCCCCCCCCCCCC(=O)*; γGlu = O=C(O)[C@H](CCC(=O)[*:2])N[*:1]; AEEA = NCCOCCOCC(=O)O
# Tests used:
# [1] = biological target: T1, human Glucagon receptor (GCGR) (Homo sapiens, UniProt P47871); test: cAMP accumulation assay, CHO-K1 cells expressing human GCGR; assay type: cell-based; conditions: mean pEC50, Table 10
# T1 construct: A cDNA fragment encoding the full-length open reading frame of the human GCGR; expressed in transfected cells; host or cells: CHO-K1, pcDNA3.1+, Lipofectamine 2000
# [2] = biological target: T2, human GLP-1 receptor (GLP-1R) (Homo sapiens, UniProt P43220); test: cAMP accumulation assay, CHO-K1 cells stably expressing human GLP-1R; assay type: cell-based; conditions: cAMP accumulation, mean pEC50, Table 10
# T2 construct: expressed in transfected cells
# [3] = cited from earlier work
# T1 sequence (P47871 26-477): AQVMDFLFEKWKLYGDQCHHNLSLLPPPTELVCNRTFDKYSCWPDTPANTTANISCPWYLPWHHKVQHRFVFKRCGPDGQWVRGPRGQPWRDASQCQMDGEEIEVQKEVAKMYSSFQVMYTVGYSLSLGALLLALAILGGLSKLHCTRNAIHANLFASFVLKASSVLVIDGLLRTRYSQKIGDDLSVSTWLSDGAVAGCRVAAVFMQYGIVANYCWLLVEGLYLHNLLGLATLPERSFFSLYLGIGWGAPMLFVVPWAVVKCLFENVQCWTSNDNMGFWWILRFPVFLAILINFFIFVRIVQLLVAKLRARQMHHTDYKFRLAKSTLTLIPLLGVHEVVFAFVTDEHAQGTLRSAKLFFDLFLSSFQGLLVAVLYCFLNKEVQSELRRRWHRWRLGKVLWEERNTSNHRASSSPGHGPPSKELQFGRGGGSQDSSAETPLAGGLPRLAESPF
# T2 sequence (P43220 24-463): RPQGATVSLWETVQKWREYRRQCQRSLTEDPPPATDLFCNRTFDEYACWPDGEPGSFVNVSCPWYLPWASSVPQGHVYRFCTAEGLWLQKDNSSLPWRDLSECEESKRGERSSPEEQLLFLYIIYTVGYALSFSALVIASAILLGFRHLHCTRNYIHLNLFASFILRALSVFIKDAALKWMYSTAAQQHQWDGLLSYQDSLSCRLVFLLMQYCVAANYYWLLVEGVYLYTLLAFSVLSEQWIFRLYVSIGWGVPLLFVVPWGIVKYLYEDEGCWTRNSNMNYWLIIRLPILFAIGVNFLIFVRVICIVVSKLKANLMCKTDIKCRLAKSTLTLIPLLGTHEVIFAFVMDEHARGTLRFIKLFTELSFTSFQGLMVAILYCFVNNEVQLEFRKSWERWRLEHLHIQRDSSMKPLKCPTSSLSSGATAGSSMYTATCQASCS
Compound,EC50 [1],EC50 [2],half-life in serum [3]
CC(C)C[C@H](NC(=O)[C@H](Cc1ccc(O)cc1)NC(=O)[C@H](CCCCN)NC(=O)[C@H](CO)NC(=O)[C@H](Cc1ccc(O)cc1)NC(=O)[C@H](CC(=O)O)NC(=O)[C@H](CO)NC(=O)[C@@H](NC(=O)[C@H](Cc1ccccc1)NC(=O)[C@@H](NC(=O)CNC(=O)[C@H](Cc1c[nH]cn1)NC(=O)[C@H](CO)NC(=O)[C@@H](N)Cc1ccc(O)cc1)[C@@H](C)O)[C@@H](C)O)C(=O)N[C@@H](CC(=O)O)C(=O)N[C@@H](CCCCNC(=O)CC[C@H](NC(=O)CC[C@H](NC(=O)COCCOCCNC(=O)CCCCCCCCCCCCCCCCCCC(=O)O)C(=O)O)C(=O)O)C(=O)N[C@@H](CCCCN)C(=O)N[C@@H](Cc1ccc(O)cc1)C(=O)N[C@@H](C)C(=O)N[C@H]1CCC(=O)NCCCC[C@@H](C(=O)N[C@@H](Cc2c[nH]c3ccccc23)C(=O)N[C@@H](CC(C)C)C(=O)N[C@@H](CCC(=O)O)C(=O)N[C@@H](CC(=O)O)C(=O)N[C@@H](CCC(=O)O)C(=O)N2CCC[C@H]2C(=O)N[C@@H](CO)C(=O)N[C@@H](CO)C(=O)NCC(=O)N[C@@H](C)C(=O)N2CCC[C@H]2C(=O)N2CCC[C@H]2C(=O)N2CCC[C@H]2C(=O)N[C@@H](CO)C(N)=O)NC(=O)[C@H](C(C)C)NC(=O)[C@H](Cc2ccccc2)NC(=O)[C@H](CCCCN)NC1=O [Compound A34] (H-YSHGTFTSDYSKYLDK([γGlu-γGlu-AEEA-C20 diacid])KYAEKFVKWLEDEPSSGAPPPS-NH2; lactam 20-24),1.26 pM,> 1000 pM,–
CC(C)C[C@H](NC(=O)[C@H](Cc1ccc(O)cc1)NC(=O)[C@H](CCCCN)NC(=O)[C@H](CO)NC(=O)[C@H](Cc1ccc(O)cc1)NC(=O)[C@H](CC(=O)O)NC(=O)[C@H](CO)NC(=O)[C@@H](NC(=O)[C@H](Cc1ccccc1)NC(=O)[C@@H](NC(=O)CNC(=O)[C@H](Cc1c[nH]cn1)NC(=O)[C@H](CO)NC(=O)[C@@H](N)Cc1ccc(O)cc1)[C@@H](C)O)[C@@H](C)O)C(=O)N[C@@H](CC(=O)O)C(=O)N[C@@H](CCCCNC(=O)CC[C@H](NC(=O)CC[C@H](NC(=O)COCCOCCNC(=O)CCCCCCCCCCCCCCCCCCC(=O)O)C(=O)O)C(=O)O)C(=O)N[C@@H](CCCCN)C(=O)N[C@@H](Cc1ccc(O)cc1)C(=O)N[C@@H](C)C(=O)N[C@H]1CCC(=O)NCCCC[C@@H](C(=O)N[C@@H](Cc2c[nH]c3ccccc23)C(=O)N[C@@H](CC(C)C)C(=O)N[C@@H](CCC(=O)O)C(=O)N[C@@H](CC(=O)O)C(=O)N[C@@H](CCC(=O)O)C(N)=O)NC(=O)[C@H](C(C)C)NC(=O)[C@H](Cc2ccccc2)NC(=O)[C@H](CCCCN)NC1=O [Compound A35] (H-YSHGTFTSDYSKYLDK([γGlu-γGlu-AEEA-C20 diacid])KYAEKFVKWLEDE-NH2; lactam 20-24; N-terminus assumed),1.26 pM,> 1000 pM,–
"human amylin: Human amylin, or islet amyloid polypeptide (IAPP), is a 37-residue polypeptide hormone (KCNTATCATQRLANFLVHSSNNFGAILSSTNVGSNTY; Islet amyloid polypeptide; UniProt P10997 34-70, looked up)",–,–,about 13 minutes
